Results as given in PMC7217877, “N-AS-triggered SPMs are direct regulators of microglia in a model of Alzheimer’s disease” (Nature Communications, 2020).
Where “and” joins values, the source holds several entries; their conditions need not be identical. Identical values can stand only once.

B1: Sphk1: purified sphingosine kinase1 enzyme (Cayman, 10348) supplemented to cell lysates (protein, UniProt Q9NYA1 1-384, looked up)
Sphingosine kinase 1: MDPAGGPRGVLPRPCRVLVLLNPRGGKGKALQLFRSHVQPLLAEAEISFTLMLTERRNHARELVRSEELGRWDALVVMSGDGLMHEVVNGLMERPDWETAIQKPLCSLPAGSGNALAASLNHYAGYEQVTNEDLLTNCTLLLCRRLLSPMNLLSLHTASGLRLFSVLSLAWGFIADVDLESEKYRRLGEMRFTLGTFLRLAALRTYRGRLAYLPVGRVGSKTPASPVVVQQGPVDAHLVPLEEPVPSHWTVVPDEDFVLVLALLHSHLGSEMFAAPMGRCAAGVMHLFYVRAGVSRAMLLRLFLAMEKGRHMEYECPYLVYVPVVAFRLEPKDGKGVFAVDGELMVSEAVQGQVHPNYFWMVSGCVEPPPSWKPQQMPPPEEPL

Columns and labels:
Format in all cases: cell-based, C57BL/6 mice
Conditions in all cases: replicates
neuron = assay: western blotting for ac-S565 and total COX2 in primary cells
microglia [1] = assay: as above; parameters: ac-S565, western blotting (Fig 3h): scale not given here
Protocol: To confirm the generation and roles of N-AS in neurons, cells from E18 C57BL/6 mice were prepared as previously described. Cortices were dissected and then dissociated followed by incubation in papain (Worthington) at 37 °C for 15 min. Neurons were plated on poly-L-lysine-coated coverslips with neuronal culture medium, serum-free Neurobasal medium (Gibco) containing 2% B27 supplements (Gibco), 1 mM Glutamax supplement (Gibco), and 100 U ml^−1 streptomycin/ 100 U ml^−1 penicillin (Gibco) at 37 °C in a humidified atmosphere of 5% CO2. Aβ 1–42 (10 μM, 24 h, Invitrogen, 03112) was exposed to neurons and the cells were analyzed for the generation and roles of N-AS. Primary astrocyte cultures were prepared from C57BL/6 mice as described previously. In brief, after removal of the meninges, postnatal day 7 (P7) mouse brain tissues were minced and incubated in a rocking water bath at 37 °C for 30 min in the presence of 0.25% trypsin-EDTA (Sigma-Aldrich). Enzyme-digested dissociated cells were triturated with astrocyte-specific medium (DMEM/F12 containing 10% FBS and 1% penicillin-streptomycin) and centrifuged at 155×g for 8 min. The pellet was resuspended in astrocyte-specific medium and passed through a 40-μm cell strainer. The filtrate was allowed pre-adherence for 30 min to remove any contamination from fibroblasts before being seeded in dishes and the addition of astrocyte-specific medium. To split the cells, Ara-C was added to the dishes and they were then placed in a heated shaker for 6–7 h. The medium was removed from the dishes, and trypsin-EDTA was added to the dish and incubated at 37 °C for 5–10 min. After centrifugation at 155×g for 8 min, the supernatant was removed, and the astrocytes were maintained in culture by feeding […] with astrocyte-specific medium. Primary microglia cultures were prepared from C57BL/6 mice as described previously. In brief, the cortices of 2-months-old mice were minced in Hibernate A (Gibco)/B27 supplements (Gibco) medium and dissociated using papain (Worthington) solution. After tissue trituration, cells were separated by Optiprep (Sigma-Aldrich) density gradient centrifugation. Microglia were plated with microglia-specific medium (DMEM/F12 containing 10% FBS and 1% penicillin-streptomycin). The immortalized human microglia (Applied Biologics Materials, T0251) were cultured in PriGrow III (Applied Biologics Materials, TM003) (supplemented with 10% FBS and 1% penicillin-streptomycin) at 37 °C in a humidified atmosphere of 5% CO2. In order to assess the clinical importance of N-AS in AD microglia, Aβ 1–42 (50 μM, 24 h, Invitrogen, 03112) was exposed to human microglia before treated with zileuton (50 μM, 24 h, Sigma-Aldrich, Z4277). The human microglia treated with Aβ 1–42 and/or zileuton was incubated with N-AS (2.5 μM, 2 h, Sigma-Aldrich, 01912), and were analyzed for the generation and roles of N-AS.
Samples were lysed in RIPA buffer (Cell signaling Technologies), then subjected to SDS-PAGE and transferred to a nitrocellulose membrane. Membranes were blocked with 5% milk, incubated with primary antibody and then incubated with the appropriate horseradish peroxidase-conjugated secondary antibody. […] We performed densitometric quantification using the ImageJ software (National Institutes of Health). Images have been cropped for presentation.

microglia [2] = assay: quantification of 15R-LXA4, RvE1, RvD1 in primary cells (LC-MS/MS); parameters: unit not given here
Protocol: Lipid mediators metabololipidomics were performed according to previously described procedures with minor modifications[4],[30]. To confirm the biosynthesis of lipid mediators by recombinant COX2 treated with N-AS or aspirin, 10 U of human recombinant COX2 (Cayman, 60122) was incubated in the presence of 500 μM aspirin (Sigma-Aldrich, A5376) or N-AS (Sigma-Aldrich, 01912) at 37 °C for 30 min. The enzyme was filtered with a Microcon column (Millipore) to remove unreacted aspirin or N-AS and was then resuspended in 0.1 M Tris-HCl (pH 8.0). Next, 500 μM phenol (Sigma-Aldrich) and 1 μM hematin-porcine (Sigma-Aldrich) were added immediately before incubation with 100 μM AA, EPA or DHA (Cayman) at 37 °C for 2 h, respectively. The mixtures were incubated with 30 U of human 5-LOX (Cayman, 60402) containing 2 mM CaCl2 (Sigma-Aldrich), 1 mM ATP (Amresco) and 5 μM 13-HpODE (Cayman) as activators. Also, to validate the importance of residue S565 for N-AS-acetylation of COX2 and production of SPMs, 10 U of the COX2 S565A mutant was used in the above-described method. In addition, to confirm SPM generation in neurons and microglia, these cells were treated with Aβ and sonicated in neuronal and glial culture medium. […] To evaluate the relationship of N-AS and SPM production in microglia, microglia were isolated from WT, APP/PS1, and APP/PS1 treated with N-AS mice at 9 months of age. The microglia were sonicated and resuspended in microglial culture medium. The supernatants were incubated with 100 μM AA, EPA, and DHA (Cayman) at 37 °C for 2 h. A 50 μl aliquot of the mixture from each cell lysate was added to a 250 μl aliquot of 1 ng ml^−1 of 15S-LXA4-d5 (internal standard, Cayman) methanol solution. After vortexing for 10 min and centrifuging at 15,974×g for 5 min, the supernatant was subjected to the analysis of the lipid mediators using an Agilent 6470 Triple Quad LC-MS/MS system (Agilent) coupled to an Agilent 1290 HPLC system. Chromatographic separation was achieved using a Synergi Polar RP (4 μm, 2.0 mm i.d. × 150 mm, Phenomenex). Analytes were eluted with a mobile phase consisting of water: formic acid (100:0.1 v/v) (phase A) and methanol: formic acid (100:0.1 v/v) (phase B) in gradient elution mode for 23 min a flow rate of 0.2 ml min^−1. The elution gradient was as follows: from 0 to 0.1 min the content of phase A was 37% and the content of phase A was decreased to 10% and maintained for 5.5 min. The content of phase A was increased back to 37% at 6.0 min and maintained for 23 min. Quantification was carried out using MRM in negative ionization mode and collision energy of 10–15 eV. The mass transition from Q1 to Q3 is shown in Supplementary Table 2. In this study, the peak areas for all components were automatically integrated using MassHunter B 06.00. […]

Molecule	ac-S565, western blotting (Fig 3h) (neuron; Ab 10mM + supplement)	ac-S565, western blotting (Fig 3h) (microglia [1]; Ab 10mM + supplement)	15R-LxA4 (Fig 3i) (microglia [2]; Ab + supplement)	RvD1 (Fig 3i) (microglia [2]; Ab + supplement)	RvE1 (Fig 3i) (microglia [2]; Ab + supplement)	ac-S565, western blotting (Fig 3h) (neuron; Ab 10mM, no supplement)	ac-S565 / total COX2, western blotting (Fig 3b) (neuron; Ab 10mM)	ac-S565, western blotting (Fig 3h) (microglia [1]; Ab 10mM, no supplement)	ac-S565 / total COX2, western blotting (Fig 3b) (microglia [1]; Ab 10mM)	15R-LxA4 (Fig 3i) (microglia [2]; Ab, no supplement)	RvD1 (Fig 3i) (microglia [2]; Ab, no supplement)	RvE1 (Fig 3i) (microglia [2]; Ab, no supplement)
CC(=O)SCCNC(=O)CCNC(=O)[C@H](O)C(C)(C)COP(=O)(O)OP(=O)(O)OC[C@H]1O[C@@H](n2cnc3c(N)ncnc32)[C@H](O)[C@@H]1OP(=O)(O)O [Acetyl-CoA, acetyl-CoA]	0.4974 and 0.4784 and 0.4801 and 0.5239	1.293 and 1.204 and 1.322 and 1.2834	23.4411 and 23.4018 and 22.7231 and 22.8804 and 24.0018 and 22.8017	1.293 and 1.217 and 1.321 and 1.255 and 1.269 and 1.288	7.62 and 7.421 and 7.916 and 7.52 and 7.668 and 7.718							
CCCCCCCCCCCCC/C=C/[C@@H](O)[C@H](CO)NC(C)=O [N-AS, N-((2S,3R,E)-1,3-Dihydroxyoctadec-4-en-2-yl)acetamide]	1.382 and 1.374 (2×) and 1.247	1.339 and 1.447 and 1.994 and 1.362	7.914 and 7.871 and 7.582 and 7.755 and 8.0725 and 7.669	0.9961 and 0.9192 and 1.008 and 0.9576 and 0.9636 and 0.9828	3.41 and 3.669 and 3.726 and 3.54 and 3.698 and 3.633							
CCCCCCCCCCCCC/C=C/[C@@H](O)[C@@H](N)CO [Sph, sphingosine]	0.6309 and 0.6553 and 0.6332 and 0.656	0.2446 and 0.241 and 0.1599 and 0.2328	0.0305 and 0.03209 and 0.03444 and 0.02809 and 0.03291 and 0.03127	0.01033	0.01434 and 0.01128 and 0.01433 and 0.01281 (2×) and 0.01357							
Ab: Aβ 1–42 (Invitrogen, 03112) used to induce an AD environment in cells						0.4287 and 0.5828 and 0.4634 and 0.6503	0.7374 and 0.6807 and 0.7791 and 0.4902 and 0.709 and 0.7299	0.2316 and 0.2169 and 0.2234 and 0.1511	0.3907 and 0.4255 and 0.3575 and 0.3077 and 0.4081 and 0.3915	0.02349 and 0.02377 and 0.02373 and 0.02259 and 0.02438 and 0.02316	0.01012	0.01237 and 0.02326 and 0.01244 and 0.01782 and 0.01785 and 0.01513
B1	1.248 and 1.156 and 1.263 and 1.199	0.2731 and 0.2264 and 0.2811 and 0.241	0.02407 and 0.02353 and 0.02184 and 0.02402 and 0.02413 and 0.02293	0.01112	0.01218 and 0.0124 and 0.01241 (2×) and 0.01229 and 0.01235							
